Laboratory results from patent publication US20130217908A1, “STABILISATION OF RADIOPHARMACEUTICAL PRECURSORS” (GE HEALTHCARE LIMITED, priority 2010, published 2013).

Key:
[1] = Storage stability of the precursor of formula II with or without a drying agent, degradation by 19F NMR; assay type: physicochemical
Method: To test the stability of the precursor of formula II when packed with a drying agent, a sample of the precursor was analysed by ^19F and ^1H measurements.
The following drying agents were used:
Molecular sieve: 0.4 nm, Merck, Art. 5708, beads about 2 mm, pore size 4A Silica: Kiselgel, Merck, product no. 1.01969.5000
The drying agents used in the tests are typical drying agents for removing water from solvents and desiccators. The drying agents were both dried at 120° C. for about 90 hours before use.
The storage conditions for the precursor together with a drying agent were tested by storing together in the bottom of a small sample glass (mixed together) placed on a shelf in the lab (i.e. at room temperature). Also some samples without drying agent were set up. The first analysis of the samples with solid product was performed after 3.5 months storage and a second analysis was carried out after 5 months storage.

[2] = Earlier stability testing of the compound of formula II at set storage temperatures; assay type: physicochemical
[3] = solid, stored in a small sample glass at room temperature
[4] = solid, stored in a small sample glass at room temperature, listed as precursor
[5] = stored in freezer, reference, no drying agent

CCOC(=O)[C@]1(NC(=O)OC(C)(C)C)C[C@@H](OS(=O)(=O)C(F)(F)F)C1 [PRECURSOR, 1-(N-(t-butoxycarbonyl)amino)-3-[((trifluoromethyl)sulfonyl)oxy]-cyclobutane-1-carboxylic acid ethyl ester]
19F NMR results, degradation (mole %) after 3.5 months [1, 3]: 30.7 mole %
19F NMR results, degradation (mole %) after 3.5 months [1, 4]: about 30 mole %
19F NMR results, degradation (mole %) after 5 months [1, 3]: 96.6 mole %
19F NMR results, degradation (mole %) after 5 months [1, 4]: about 97 mole %
19F NMR results, degradation (mole %) after 3.5 months [1, 5]: 0.7 mole %
19F NMR results, degradation (mole %) after 5 months [1, 5]: 0.6 mole %
hygroscopicity (observation) [2]: hygroscopic
period over which the compound is stable ([2]; stability testing at 25° C.): ~1 month
stability at storage conditions ([2]; storage between −20° C. and −5° C.): acceptable stability
